Data as given in patent US10800741B2 (ANCUREALL PHARMACEUTICAL (SHANGHAI) CO., LTD., priority 2017, dated 2020).
Where two headings read alike, the source gives them in different places.

What was measured:
Assay type in all cases: cell-based, Human
H1703 (PDGFRa amp) = assay: In vitro growth inhibition of H1703 tumor cells (MTT/CCK8); conditions: Homo sapiens, NCI-H1703; in vitro growth inhibition (or induction of apoptosis), cells cultured 3 to 5 days, MTT (CCK8); read-out: IC50 H1703 (PDGFRa amp)
Excerpt: (§1) Tumor cell lines are an effective model for studying in vitro tumor growth inhibition. In the present invention, a representative tumor cell line was selected to determine the cell growth inhibition activity of the present compound. All cell lines used were from ATCC, DSMZ, and cell banks of the Chinese Academy of Sciences. Cell culture conditions and methods were in accordance with the requirements of each cell line. Cells were subcultured in vitro for no more than 3 generations each time, and as required, single-clone purification and identification of cell lines could be carried out.
(§2) The cell culture media used were RPMI1640 (Gibco), DMEM (Gibco), MEM (Gibco), L15 (Gibco), IMDM (Gibco), McCOY'S5A, and William's (Gibco). 5-20% fetal bovine serum (Gibco), 1% double antibiotic, 2 mM glutamine, or 1 mM sodium pyruvate were added. The names, species, major gene characteristics, culture media and cell sources of the cell lines used are shown in table 1, wherein “amp” refers to gene amplification. “+++” refers to gene overexpression. The main genetic characteristics of cells were obtained from the COSMIC Cell Lines Project and related research papers, respectively.
(§3) Adherent cells were digested with 0.25% trypsin-EDTA (Gibco). Suspension culture cells were collected by centrifugation (1700 rpm, 3 minutes). The supernatant was discarded and the cells were counted. According to each cell growth cycle, different concentrations of cells were prepared (5˜10×10^4 cells per ml), and inoculated to 96-well plates (Corning), with 100 μl per well, and incubated overnight at 37° C., 5% CO2. The next day, the test compound was added to the cultured cells (2 wells in parallel). The final concentration of the solvent was less than 1/1,000. The cells were further cultured for 3 to 5 days and assayed by MTT.
(§4) The compound was stored at a concentration of 10 mM at −20° C. and diluted to 2- or 10-fold series prior to use. BGJ398 and AC220 were synthesized according to the methods of WO2006420A1 and US2007232604A1, respectively.
(§5) The adherent cells were taken out from the cell culture medium, and immediately added to a freshly prepared complete medium containing 10% CCK8 (5% FBS), 100 ul per hole. The suspended cells were directly added to a CCK8 reagent until reaching a final concentration of 10% and cultured for 1 to 4 hours.
(§6) T=optical density of drug-treated cell wells−optical density of blank control wells; T0=optical density of cell wells before drug treatment−optical density of blank control wells; C=optical density of solvent control wells−optical density of blank control wells. […] The experiments were repeated 1 to 3 times and a statistical analysis of data was conducted.

KCL-22 (BCR-ABL) = assay: In vitro growth inhibition of KCL-22 tumor cells (MTT/CCK8); conditions: Homo sapiens, KCL-22; in vitro growth inhibition (or induction of apoptosis), cells cultured 3 to 5 days, MTT (CCK8); read-out: IC50 KCL-22 (BCR-ABL)
Excerpt: as §1, §2, §3, §4, §5, §6

Karpas 299 (NPM-ALK) = assay: In vitro growth inhibition of Karpas 299 tumor cells (MTT/CCK8); conditions: Homo sapiens
Excerpt: as §1, §2, §3, §4, §5, §6

MOLM-13 (FLT3-ITD) = assay: In vitro growth inhibition of MOLM-13 tumor cells (MTT/CCK8); conditions: Homo sapiens
Excerpt: as §1, §2, §3, §4, §5, §6

KATO III (FGFR2 amp) = assay: In vitro growth inhibition of KATO III tumor cells (MTT/CCK8); conditions: Homo sapiens, KATO III; in vitro growth inhibition (or induction of apoptosis), cells cultured 3 to 5 days, MTT (CCK8); read-out: IC50 KATO III (FGFR2 amp)
Excerpt: as §1, §2, §3, §4, §5, §6

H1581 (FGFR1 amp) = assay: In vitro growth inhibition of H1581 tumor cells (MTT/CCK8); conditions: Homo sapiens, NCI-H1581; in vitro growth inhibition (or induction of apoptosis), cells cultured 3 to 5 days, MTT (CCK8); read-out: IC50 H1581 (FGFR1 amp)
Excerpt: as §1, §2, §3, §4, §5, §6

Kasumi-1 (KIT N822K) = assay: In vitro growth inhibition of Kasumi-1 tumor cells (MTT/CCK8); conditions: Homo sapiens, Kasumi 1; in vitro growth inhibition (or induction of apoptosis), cells cultured 3 to 5 days, MTT (CCK8); read-out: IC50 Kasumi-1 (KIT N822K)
Excerpt: as §1, §2, §3, §4, §5, §6

Hep3B2 (FGFR3/4+++) = assay: In vitro growth inhibition of Hep3B2 tumor cells (MTT/CCK8); conditions: Homo sapiens, Hep3B; in vitro growth inhibition (or induction of apoptosis), cells cultured 3 to 5 days, MTT (CCK8); read-out: IC50 Hep3B2 (FGFR3/4+++)
Excerpt: as §1, §2, §3, §4, §5, §6

[1] = KARPAS-299, in vitro growth inhibition (or induction of apoptosis), cells cultured 3 to 5 days, MTT (CCK8), read-out: IC50 Karpas 299 (NPM-ALK)
[2] = MOLM-13, in vitro growth inhibition (or induction of apoptosis), cells cultured 3 to 5 days, MTT (CCK8), read-out: IC50 MOLM-13 (FLT3-ITD)

Row | SMILES | IC50 (H1703 (PDGFRa amp)) | IC50 (KCL-22 (BCR-ABL)) | IC50 (Karpas 299 (NPM-ALK); [1]) | IC50 (MOLM-13 (FLT3-ITD); [2]) | IC50 (KATO III (FGFR2 amp)) | IC50 (H1581 (FGFR1 amp)) | IC50 (Kasumi-1 (KIT N822K)) | IC50 (Hep3B2 (FGFR3/4+++)) | IC50 (Karpas 299 (NPM-ALK); KARPAS-299, read-out: IC50 Karpas 299 (NPM-ALK)) | IC50 (MOLM-13 (FLT3-ITD); MOLM-13, read-out: IC50 MOLM-13 (FLT3-ITD))
1 | CC(C)(C)c1cc(NC(=O)Nc2ccc(-c3cn4c(n3)sc3cc(OCCC5CCOCC5)ccc34)cc2)no1 [AC220, reference compound] | > 1000 nM | > 1000 nM | > 1000 nM | 0.69 nM | > 1000 nM | > 1000 nM | > 1000 nM | – | – | –
2 | COc1cc2nccc(Oc3ccc(NC(=O)Nc4cc(C(C)(C)C)on4)c(Br)c3)c2cc1C(N)=O [Compound 3, 4-{3-bromo-4-[3-(5-tert-butyl-isoxazol-3-yl)-ureido]-phenoxy}-7-methoxyquinolin-6-carboxamide] | 16.6 nM | 14 nM | 725 nM | 35.4 nM | 1.46 nM | 6.87 nM | 27.8 nM | 27.4 nM | – | –
3 | COc1cc2nccc(Oc3ccc(NC(=O)Nc4cc(C(C)(C)C)on4)c(C(F)(F)F)c3)c2cc1C(N)=O [Compound 4] | 21.8 nM | 10.4 nM | 756 nM | 122 nM | 2.93 nM | 13.2 nM | 14.5 nM | 27.8 nM | – | –
4 | CC(C)(C)c1cc(NC(=O)Nc2ccc(Oc3ccnc4cc(OCCCN5CCN(c6ccccc6)CC5)c(C(N)=O)cc34)cc2Cl)[nH]n1 [Compound 86, 4-{4-[3-(5-tert-butyl-2H-pyrazol-3-yl)-ureido]-3-chloro-phenoxy}-7-[3-(4-phenyl-piperazin-1-yl)-propoxy]-quinolin-6-carboxamide] | 370 nM | – | 600 nM | – | 68.3 nM | 326 nM | 76.3 nM | 85.1 nM | – | –
5 | CN1CCCN(CCCOc2cc3nccc(Oc4ccc(NC(=O)Nc5cc(C(C)(C)C)n[nH]5)c(Cl)c4)c3cc2C(N)=O)CC1 [Compound 88, 4-{4-[3-(5-tert-butyl-2H-pyrazol-3-yl)-ureido]-3-chloro-phenoxy}-7-[3-(4-methyl-[1,4]-1-yl)-propoxy]-quinolin-6-carboxamide] | 55.6 nM | 282 nM | 153 nM | 5.49 nM | 5.67 nM | – | 15.6 nM | 175 nM | – | –
6 | CC(C)CN1CCN(CCCOc2cc3nccc(Oc4ccc(NC(=O)Nc5cc(C(C)(C)C)n[nH]5)c(Cl)c4)c3cc2C(N)=O)CC1 [Compound 89, 4-{4-[3-(5-tert-butyl-2H-pyrazol-3-yl)-ureido]-3-chloro-phenoxy}-7-[3-(4-isobutyl-piperazin-1-yl)-propoxy]-quinolin-6-carboxamide] | 13.1 nM | 45 nM | 146 nM | 6.43 nM | 1.12 nM | – | 4.48 nM | 19.4 nM | – | –
7 | CC(C)(C)c1cc(NC(=O)Nc2ccc(Oc3ccnc4cc(OCCCN5CCN(CC6CCCCC6)CC5)c(C(N)=O)cc34)cc2Cl)[nH]n1 [Compound 90] | – | 175 nM | 256 nM | 7.54 nM | 2.78 nM | – | 9.47 nM | 101 nM | – | –
8 | CC(=O)N1CCN(CCCOc2cc3nccc(Oc4ccc(NC(=O)Nc5cc(C(C)(C)C)n[nH]5)c(Cl)c4)c3cc2C(N)=O)CC1 [Compound 91, 7-[3-(4-acetyl-piperazin-1-yl)-propoxy]-4-{4-[3-(5-tert-butyl-2H-pyrazol-3-yl)-ureido]-3-chloro-phenoxy}-quinolin-6-carboxamide] | – | 184 nM | 216 nM | 6.41 nM | 1.26 nM | – | 16.4 nM | 43.1 nM | – | –
9 | COc1cc2nccc(Oc3ccc(NC(=O)Nc4cc(C(C)(C)C)n[nH]4)cn3)c2cc1C(N)=O [Compound 108, 4-{5-[3-(5-tert-butyl-2H-pyrazol-3-yl)-ureido]-pyridin-2-yloxy}-7-methoxy-quinolin-6-carboxamide] | 666 nM | > 1000 nM | > 1000 nM | 3.81 nM | 31.3 nM | 146 nM | > 1000 nM | – | – | –
10 | CC(C)(C)c1cc(NC(=O)Nc2ccc(Oc3ccnc4cc(OCCCN5CCOCC5)c(C(N)=O)cc34)cc2Cl)n(C2CCCC2)n1 [Compound 140, 4-{4-[3-(5-tert-butyl-2-cyclopentyl-2H-pyrazol-3-yl)-ureido]-3-chloro-phenoxy}-7-(3-morpholin-4-yl-propoxy)-quinolin-6-carboxamide] | – | – | – | 17.9 nM | 23.7 nM | 115 nM | – | – | – | –
11 | Cc1ccc(C(=O)Nc2ccc(CN3CCN(C)CC3)c(C(F)(F)F)c2)cc1C#Cc1cnc2cccnn12 [Ponatinib, reference compound] | – | – | – | – | – | – | – | – | 798 nM | < 1 nM

Continued by falling IC50 (KATO III (FGFR2 amp)), values first:

Row | IC50 (H1703 (PDGFRa amp)) | IC50 (KCL-22 (BCR-ABL)) | IC50 (Karpas 299 (NPM-ALK); [1]) | IC50 (MOLM-13 (FLT3-ITD); [2]) | IC50 (KATO III (FGFR2 amp)) | IC50 (H1581 (FGFR1 amp)) | IC50 (Kasumi-1 (KIT N822K)) | IC50 (Hep3B2 (FGFR3/4+++)) | IC50 (Karpas 299 (NPM-ALK); KARPAS-299, read-out: IC50 Karpas 299 (NPM-ALK)) | IC50 (MOLM-13 (FLT3-ITD); MOLM-13, read-out: IC50 MOLM-13 (FLT3-ITD)) | SMILES
12 | 12.5 nM | 55.1 nM | 144 nM | 3.65 nM | 1.02 nM | – | 4.19 nM | 57.2 nM | – | – | CC(C)(C)c1cc(NC(=O)Nc2ccc(Oc3ccnc4cc(OCCCN5CCN(C(C)(C)C)CC5)c(C(N)=O)cc34)cc2Cl)[nH]n1 [Compound 87, 7-[3-(4-tert-butyl-piperazin-1-yl)-propoxy]-4-{4-[3-(5-tert-butyl-2H-pyrazol-3-yl)-ureido]-3-chlorophenoxy}-quinolin-6-carboxamide]
13 | 11.9 nM | 46.5 nM | 93 nM | – | 0.98 nM | 9.19 nM | 191 nM | – | – | – | COCCOc1cc2nccc(Oc3ccc(NC(=O)Nc4cc(C(C)(C)C)n[nH]4)c(Cl)c3)c2cc1C(N)=O [Compound 42, 4-{4-[3-(5-tert-butyl-2H-pyrazol-3-yl)-ureido]-3-chloro-phenoxy}-7-(2-methoxy-ethoxy)-quinolin-6-carboxamide]
14 | 7.9 nM | 7.58 nM | 587 nM | 6.49 nM | 0.51 nM | 3.35 nM | 26.1 nM | 25.6 nM | – | – | COc1cc2nccc(Oc3ccc(NC(=O)Nc4cc(C(C)(C)C)on4)c(Cl)c3)c2cc1C(N)=O [Compound 2, 4-{4-[3-(5-tert-butyl-isoxazol-3-yl)-ureido]-3-chloro-phenoxy}-7-methoxyquinolin-6-carboxamide]
15 | 17.3 nM | 2.69 nM | 100 nM | – | 0.23 nM | 3.02 nM | 0.406 nM | 15.8 nM | – | – | COc1cc2nccc(Oc3ccc(NC(=O)Nc4cc(C(C)(C)C)n[nH]4)c(Cl)c3C)c2cc1C(N)=O [Compound 112, 4-{4-[3-(5-tert-butyl-2H-pyrazol-3-yl)-ureido]-3-chloro-2-methyl-phenoxy}-7-methoxy-quinolin-6-carboxamide]
16 | 4.75 nM | 1.07 nM | 55.7 nM | – | 0.1 nM | 2.98 nM | 0.375 nM | 8.41 nM | – | – | COc1cc2nccc(Oc3ccc(NC(=O)Nc4cc(C(C)(C)C)nn4C)c(Cl)c3C)c2cc1C(N)=O [Compound 111, 4-{4-[3-(5-tert-butyl-2-methyl-2H-pyrazol-3-yl)-ureido]-3-chloro-2-methyl-phenoxy}-7-methoxy-carboxamide]
